The values that follow are results of earlier work, collected in patent US20060173046A1, “Hydroxypyridine cgrp receptor antagonists” (priority 2003, published 2006).

One data set deals with marmoset. As to conditions: electrical stimulation of the trigeminal ganglion.
The test system of another data set is rats. As to conditions: electrical stimulation of the dura mater, prior administration.
For a further data set, the system named is rat. As to conditions: trigeminal ganglion stimulation.

Ends that are not written are not given here.

For the molecule `NCCCC[C@H](NC(=O)[C@@H](Cc1cc(Br)c(O)c(Br)c1)NC(=O)N1CCC(N2Cc3ccccc3NC2=O)CC1)C(=O)N1CCN(c2ccncc2)CC1` [BIBN4096BS], the “increase in facial blood flow” value with marmoset is listed as “blocked”.
Turning to “CGRP(8-37): a peptide CGRP antagonist (VTHRLAGLLSRSGGVVKNNFVPTNVGSKAF; ends and bridges not checked; UniProt P06881 90-119, looked up, fragment)”, in the data set on rats, the “increase of the diameter of the middle meningeal artery” value was “blocked”. Besides, in the data set with rat, the “increased facial blood flow” value is reported as “inhibited”.
